Here are results for 26 compounds from patent US10766894B2, “Aza-indazole compounds for use in tendon and/or ligament injuries” (NOVARTIS AG, priority 2016, dated 2020).

The term EC50 denotes the concentration needed to bring the measured effect to its halfway point.

Molecules are shown by their SMILES.

In one experiment the test system is mouse immortalized TT-D6 Scx-luciferase (ScxL) cell line; transcriptional activation of Scleraxis (Scx) gene. The experiment in a line: SCX-LUC in vitro assay (scleraxis promoter luciferase reporter). It is filed as cell-based. The following applies: Mus musculus, 96 h; Examples table; TT-D6 Scx-luciferase cells, 1 ng/ml TGFβ1, four days; read-out: Scx-Luc (EC50 μM).
As for `Nc1n[nH]c2ccc(-c3ccc(NS(=O)(=O)c4ccc(Cl)c(F)c4)cc3Cl)nc12` [Example 13, N-(4-(3-amino-1H-pyrazolo[4,3-b]pyridin-5-yl)-3-chlorophenyl)-4-chloro-3-fluorobenzenesulfonamide], the EC50 was found to be 1.34 µM.

Consider `Cc1cc(S(=O)(=O)N[C@H]2CC[C@](C)(O)CC2)ccc1-c1ccc2[nH]nc(N)c2n1` [Example 80, 4-(3-amino-1H-pyrazolo[4,3-b]pyridin-5-yl)-N-((1r,4r)-4-hydroxy-4-methylcyclohexyl)-3-methylbenzenesulfonamide], for which the half-maximal effective concentration (EC50) was 0.225 µM. Same read-out and setting: to `Cc1ccc(S(=O)(=O)Nc2ccc(-c3ccc4[nH]nc(N)c4n3)c(Cl)c2)cc1` [Example 25, N-(4-(3-amino-1H-pyrazolo[4,3-b]pyridin-5-yl)-3-chlorophenyl)-4-methylbenzenesulfonamide] belongs 0.611 µM; to `Nc1n[nH]c2ccc(-c3ccc(S(=O)(=O)Nc4cccc(Cl)c4Cl)cc3Cl)nc12` [Example 56, 4-(3-amino-1H-pyrazolo[4,3-b]pyridin-5-yl)-3-chloro-N-(2,3-dichlorophenyl)benzenesulfonamide], 1.64 µM; to `Nc1n[nH]c2ccc(-c3ccc(NS(=O)(=O)C4CCCCC4)cc3Cl)nc12` [Example 15, N-(4-(3-amino-1H-pyrazolo[4,3-b]pyridin-5-yl)-3-chlorophenyl)cyclohexanesulfonamide], 0.874 µM. With `Cc1cc(S(=O)(=O)N[C@H]2CC[C@H](O)CC2)ccc1-c1ccc2[nH]nc(N)c2n1` [Example 54, 4-(3-amino-1H-pyrazolo[4,3-b]pyridin-5-yl)-N-((1r,4r)-4-hydroxycyclohexyl)-3-methylbenzenesulfonamide], the concentration for a half-maximal effect (EC50) amounted to 1.13 µM. Regarding `Cc1cc(S(=O)(=O)NC2CCCCC2)ccc1-c1ccc2[nH]nc(N)c2n1` [Example 39, 4-(3-amino-1H-pyrazolo[4,3-b]pyridin-5-yl)-N-cyclohexyl-3-methylbenzenesulfonamide], the 50% effective concentration (EC50) amounted to 0.473 µM. With `CC1CCC(NS(=O)(=O)c2ccc(-c3ccc4[nH]nc(N)c4n3)c(Cl)c2)CC1` (centres unmarked) [Example 36, 4-(3-amino-1H-pyrazolo[4,3-b]pyridin-5-yl)-3-chloro-N-(4-methylcyclohexyl)benzenesulfonamide], the EC50 turned out to be 0.414 µM.

On to `Nc1n[nH]c2ccc(-c3ccc(S(=O)(=O)N4CC[C@@H](O)C4)cc3Cl)nc12` [Example 57, (R)-1-((4-(3-amino-1H-pyrazolo[4,3-b]pyridin-5-yl)-3-chlorophenyl)sulfonyl)pyrrolidin-3-ol], for which the EC50 was 0.633 µM.

As for `Cc1cc(S(=O)(=O)N[C@H]2CC[C@@H](O)CC2)ccc1-c1ccc2[nH]nc(N)c2n1` [Example 69, 4-(3-amino-1H-pyrazolo[4,3-b]pyridin-5-yl)-N-((1s,4s)-4-hydroxycyclohexyl)-3-methylbenzenesulfonamide], the half-maximal effective concentration (EC50) came to 0.912 µM. `Nc1n[nH]c2ccc(-c3ccc(S(=O)(=O)NCc4ccccc4)cc3Cl)nc12` [Example 73, 4-(3-amino-1H-pyrazolo[4,3-b]pyridin-5-yl)-N-benzyl-3-chlorobenzenesulfonamide]: the 50% effective concentration (EC50) amounted to 3.53 µM.

Regarding `COc1ccc(S(=O)(=O)Nc2ccc(-c3ccc4[nH]nc(N)c4n3)c(Cl)c2)cc1` [Example 5, N-(4-(3-amino-1H-pyrazolo[4,3-b]pyridin-5-yl)-3-chlorophenyl)-4-methoxybenzenesulfonamide], the EC50 was 0.909 µM. `Nc1n[nH]c2ccc(-c3ccc(NS(=O)(=O)c4ccc(F)c(Cl)c4)cc3Cl)nc12` [Example 27, N-(4-(3-amino-1H-pyrazolo[4,3-b]pyridin-5-yl)-3-chlorophenyl)-3-chloro-4-fluorobenzenesulfonamide]: the concentration for a half-maximal effect (EC50) was 1.08 µM. In the case of `Nc1n[nH]c2ccc(-c3ccc(NS(=O)(=O)c4cccc(C(F)(F)F)c4)cc3Cl)nc12` [Example 62, N-(4-(3-amino-1H-pyrazolo[4,3-b]pyridin-5-yl)-3-chlorophenyl)-3-(trifluoromethyl)benzenesulfonamide], the 50% effective concentration (EC50) turned out to be 1.3 µM. `Cc1cc(S(=O)(=O)N[C@@H]2CC[C@H](O)C2)ccc1-c1ccc2[nH]nc(N)c2n1` [Example 19, 4-(3-amino-1H-pyrazolo[4,3-b]pyridin-5-yl)-N-((1R,3S)-3-hydroxycyclopentyl)-3-methylbenzenesulfonamide]: the EC50 was 1.7 µM. For the compound `Nc1n[nH]c2ccc(-c3ccc(S(=O)(=O)Nc4cccc(Cl)c4)cc3Cl)nc12` [Example 90, 4-(3-amino-1H-pyrazolo[4,3-b]pyridin-5-yl)-3-chloro-N-(3-chlorophenyl)benzenesulfonamide], the EC50 came to 2.54 µM. Consider `Nc1n[nH]c2ccc(-c3ccc(S(=O)(=O)Nc4cccc(Cl)c4F)cc3Cl)nc12` [Example 52, 4-(3-amino-1H-pyrazolo[4,3-b]pyridin-5-yl)-3-chloro-N-(3-chloro-2-fluorophenyl)benzenesulfonamide], for which the EC50 was 1.1 µM. Take `CC(C)(C)NS(=O)(=O)c1ccc(-c2ccc3[nH]nc(N)c3n2)c(F)c1` [Example 75, 4-(3-amino-1H-pyrazolo[4,3-b]pyridin-5-yl)-N-tert-butyl-3-fluorobenzenesulfonamide]: the concentration giving a half-maximal response (EC50) is 1.52 µM.

Consider `Nc1n[nH]c2ccc(-c3ccc(NS(=O)(=O)[C@H]4CCCC[C@H]4O)cc3Cl)nc12` [Example 14, (1S,2R)—N-(4-(3-amino-1H-pyrazolo[4,3-b]pyridin-5-yl)-3-chlorophenyl)-2-hydroxycyclohexane-1-sulfonamide], for which the half-maximal effective concentration (EC50) turned out to be 1.12 µM. Take `Cc1cc(S(=O)(=O)N[C@@H]2CCC[C@@H]2O)ccc1-c1ccc2[nH]nc(N)c2n1` [Example 20, 4-(3-amino-1H-pyrazolo[4,3-b]pyridin-5-yl)-N-((1R,2S)-2-hydroxycyclopentyl)-3-methylbenzenesulfonamide]: the 50% effective concentration (EC50) turned out to be 0.797 µM.

Regarding `Nc1n[nH]c2ccc(-c3ccc(S(=O)(=O)N4CC[C@H](O)C4)cc3Cl)nc12` [Example 71, (S)-1-((4-(3-amino-1H-pyrazolo[4,3-b]pyridin-5-yl)-3-chlorophenyl)sulfonyl)pyrrolidin-3-ol], the EC50 worked out at 3.53 µM. The same measure, in the same setting: to `Cc1cc(S(=O)(=O)N2CCC(CCO)C2)ccc1-c1ccc2[nH]nc(N)c2n1` (centres unmarked) [Example 83, 2-(1-((4-(3-amino-1H-pyrazolo[4,3-b]pyridin-5-yl)-3-methylphenyl)sulfonyl)pyrrolidin-3-yl)ethanol] belongs 5.33 µM; to `CC1(C)CCC(NS(=O)(=O)c2ccc(-c3ccc4[nH]nc(N)c4n3)c(Cl)c2)CC1` [Example 24, 4-(3-amino-1H-pyrazolo[4,3-b]pyridin-5-yl)-3-chloro-N-(4,4-dimethylcyclohexyl)benzenesulfonamide], 1.59 µM.

As to `Nc1n[nH]c2ccc(-c3ccc(S(=O)(=O)Nc4cccc(F)c4)cc3Cl)nc12` [Example 40], the concentration for a half-maximal effect (EC50) is 0.416 µM. With `Nc1n[nH]c2ccc(-c3ccc(NS(=O)(=O)C4CCCCC4O)cc3Cl)nc12` (centres unmarked) [Example 17, N-(4-(3-amino-1H-pyrazolo[4,3-b]pyridin-5-yl)-3-chlorophenyl)-2-hydroxycyclohexane-1-sulfonamide], the EC50 was 1.84 µM.

Staying with this experiment, now noted: further compounds not numbered as examples; read-out: EC50 in the Scx-Luc assay.
`Nc1n[nH]c2ccc(-c3ccc(S(=O)(=O)NC4CCC(O)(C(F)(F)F)CC4)cc3Cl)nc12` [4-(3-amino-1H-pyrazolo[4,3-b]pyridin-5-yl)-3-chloro-N-((1R,4R)-4-hydroxy-4-(trifluoromethyl)cyclohexyl)benzenesulfonamide]: the concentration giving a half-maximal response (EC50) was above 10 µM.
